Results on 37 molecules are retold here after patent publication US8999967B2, “Tricyclic fused ring inhibitors of hepatitis C” (Presidio Pharmaceuticals, Inc., priority 2010, dated 2015).

The test system of this assay is HCV 1b_Huh-Luc/Neo-ET cell line (genotype 1b replicon in Huh 7 cells). Briefly: HCV replicon assay (luciferase readout). The assay is classed as cell-based. Particulars: Hepatitis C virus, HCV 1b replicon in Huh 7 cells, 72 h incubation, EC50 range class, read-out: Inhibition of HCV genotype 1b. The procedure: Biological activity of the compounds of the invention was determined using an HCV replicon assay. The HCV 1b_Huh-Luc/Neo-ET cell line persistently expressing a bicistronic genotype 1b replicon in Huh 7 cells was obtained from ReBLikon GMBH. This cell line was used to test compound inhibition using luciferase enzyme activity readout as a measurement of compound inhibition of replicon levels.
On Day 1 (the day after plating cells), each compound is added in triplicate to the cells. Plates are incubated for 72 h prior to determining luciferase levels. Enzyme activity was measured using a Bright-Glo Kit (cat. number E2620) manufactured by Promega Corporation. The following equation was used to generate a percent control value for each compound. % Control=(Compound Luciferase Level/Control Luciferase Level)*100
The EC50 value was determined using GraphPad Prism and the following equation: Y=Bottom asymptote+(Top asymptote-Bottom asymptote)/(1+10^((Log EC50−X)*HillSlope))
EC50 values of compounds are determined several times in the replicon assay to generate average EC50 values. […]
For the molecule `COC(=O)N[C@H](C(=O)N1CCC[C@H]1c1ncc(-c2ccc3c(c2)c(=O)c2ccc(-c4cnc([C@@H]5CCCN5C(=O)[C@@H](NC(=O)OC)C(C)C)[nH]4)cc2n3C)[nH]1)C(C)C` [Example 11], the EC50 is less than 1 nM.
On to `COC(=O)N[C@H](C(=O)N1CCC[C@H]1c1ncc(-c2ccc3oc4cc(-c5cnc([C@@H]6CCCN6C(=O)[C@@H](NC(=O)OC)C6CCOCC6)[nH]5)c(Cl)cc4c(=O)c3c2)[nH]1)C1CCOCC1` [Compound 52], for which the EC50 was less than 1 nM.
Under `CC[C@H](C)[C@H](NC(=O)OC)C(=O)N1CCC[C@H]1c1ncc(-c2cc3c(cc2F)Cc2cc(-c4cnc([C@@H]5CCCN5C(=O)[C@H](COC)NC(=O)OC)[nH]4)ccc2O3)[nH]1` [Compound 60] stands less than 1 nM; under `COC(=O)N[C@H](C(=O)N1CCC[C@H]1c1ncc(-c2ccc3c(c2)Cc2ccc(-c4cnc([C@@H]5CCCN5C(=O)[C@@H](NC(=O)OC)[C@@H](C)OC)[nH]4)cc2O3)[nH]1)[C@@H](C)OC` [Compound 30], less than 1 nM; under `COC(=O)N[C@H](C(=O)N1CCCC[C@H]1c1ncc(-c2ccc3c(c2)Oc2ccc(-c4cnc([C@@H]5CCCCN5C(=O)[C@@H](NC(=O)OC)C(C)C)[nH]4)cc2O3)[nH]1)C(C)C` [Compound 47], less than 1 nM.
The same measure for `CC[C@H](C)[C@H](NC(=O)OC)C(=O)N1CCC[C@H]1c1ncc(-c2ccc3c(c2)Cc2cc(F)c(-c4cnc([C@@H]5CCCN5C(=O)[C@@H](NC(=O)OC)[C@@H](C)OC)[nH]4)cc2O3)[nH]1` [Compound 41]: less than 1 nM.
The same measure for `C#CC[C@H](NC(=O)OC)C(=O)N1CCC[C@H]1c1ncc(-c2ccc3c(c2)Oc2ccc(-c4cnc([C@@H]5CCCN5C(=O)[C@H](CC#C)NC(=O)OC)[nH]4)cc2O3)[nH]1` [Compound 56]: less than 1 nM.
As to `COC(=O)N[C@@H](C)C(=O)N1CCC[C@H]1c1ncc(-c2ccc3oc4cc(-c5cnc([C@@H]6CCCN6C(=O)[C@@H](NC(=O)OC)C(C)C)[nH]5)ccc4c(=O)c3c2)[nH]1` [Example 20], the EC50 is less than 1 nM.
`COC(=O)N[C@H](C(=O)N1CCC[C@H]1c1ncc(-c2ccc3oc4cc(-c5cnc([C@@H]6CCCN6C(=O)[C@@H](NC(=O)OC)[C@@H](C)OC)[nH]5)c(Cl)cc4c(=O)c3c2)[nH]1)[C@@H](C)OC` [Compound 50]: the EC50 was less than 1 nM.
Under `COC(=O)N[C@H](C(=O)N1CCC[C@H]1c1ncc(-c2ccc3c(c2)C(C)(C)c2ccc(-c4ccc5nc([C@@H]6CCCN6C(=O)[C@@H](NC(=O)OC)[C@@H](C)OC)[nH]c5c4)cc2O3)[nH]1)[C@@H](C)OC` [Compound 146] stands less than 1 nM; under `COC(=O)N[C@@H](C(=O)N1CCCC[C@H]1c1ncc(-c2ccc3c(c2)Oc2ccc(-c4cnc([C@@H]5CCCCN5C(=O)[C@H](NC(=O)OC)c5ccccc5)[nH]4)cc2O3)[nH]1)c1ccccc1` [Compound 48], less than 1 nM; under `CC[C@H](C)[C@H](NC(=O)OC)C(=O)N1CCC[C@H]1c1ncc(-c2ccc3c(c2)Cc2cc(Cl)c(-c4cnc([C@@H]5CCCN5C(=O)[C@@H](NC(=O)OC)[C@@H](C)CC)[nH]4)cc2O3)[nH]1` [Compound 63], less than 1 nM.
The same measure for `COC(=O)N[C@H](C(=O)N1CCC[C@H]1c1ncc(-c2ccc3c(=O)c4cc(-c5cnc([C@@H]6CSCN6C(=O)[C@@H](NC(=O)OC)[C@@H](C)OC)[nH]5)ccc4oc3c2)[nH]1)[C@@H](C)OC` [Compound 120]: less than 1 nM.
Under `COC(=O)N[C@H](C(=O)N1CCC[C@H]1c1ncc(-c2ccc3oc4cc(-c5cnc([C@@H]6CCCN6C(=O)[C@@H](NC(=O)OC)C(C)C)[nH]5)c(F)cc4c(=O)c3c2)[nH]1)C(C)C` [Example 22] stands less than 1 nM.
Consider `CC[C@H](C)[C@H](NC(=O)OC)C(=O)N1CCC[C@H]1c1ncc(-c2ccc3c(c2)Cc2cc(F)c(-c4cnc([C@@H]5CCCN5C(=O)[C@@H](NC(=O)OC)[C@@H](C)CC)[nH]4)cc2O3)[nH]1` [Compound 53], for which the EC50 is less than 1 nM.
Under `COC(=O)N[C@H](C(=O)N1CCC[C@H]1c1ncc(-c2ccc3oc4cc(-c5cnc([C@@H]6CCCN6C(=O)[C@@H](NC(=O)OC)C6CCOCC6)[nH]5)c(F)cc4c(=O)c3c2)[nH]1)C1CCOCC1` [Example 23] stands less than 1 nM; under `COC(=O)N[C@H](C(=O)N1CCC[C@H]1c1ncc(-c2ccc3c(=O)c4cc(-c5cnc([C@@H]6CCCN6C(=O)[C@@H](NC(=O)OC)C(C)C)[nH]5)ccc4oc3c2)[nH]1)C(C)C` [Example 8], less than 1 nM.
For the molecule `CC[C@H](C)[C@H](NC(=O)OC)C(=O)N1CSC[C@H]1c1ncc(-c2ccc3c(c2)Oc2ccc(-c4cnc([C@@H]5CSCN5C(=O)[C@@H](NC(=O)OC)[C@@H](C)CC)[nH]4)cc2O3)[nH]1` [Compound 67], the EC50 is less than 1 nM.
The same measure for `COC(=O)N[C@H](C(=O)N1CSC[C@H]1c1ncc(-c2ccc3c(c2)Oc2ccc(-c4cnc([C@@H]5CSCN5C(=O)[C@@H](NC(=O)OC)C5CCCC5)[nH]4)cc2O3)[nH]1)C1CCCC1` [Compound 66]: less than 1 nM; for `CC[C@H](C)[C@H](NC(=O)OC)C(=O)N1CCCC[C@H]1c1ncc(-c2ccc3oc4cc(-c5cnc([C@@H]6CCCN6C(=O)[C@@H](NC(=O)OC)[C@@H](C)CC)[nH]5)ccc4c(=O)c3c2)[nH]1` [Compound 132]: less than 1 nM; for `COC(=O)N[C@@H](C(=O)N1CCC[C@H]1c1ncc(-c2ccc3c(=O)c4cc(-c5cnc([C@@H]6CSCN6C(=O)[C@H](NC(=O)OC)c6ccccc6)[nH]5)ccc4oc3c2)[nH]1)c1ccccc1` [Compound 121]: less than 1 nM.
In the case of `COC[C@H](NC(=O)OC)C(=O)N1CCC[C@H]1c1ncc(-c2ccc3c(c2)Cc2cc(F)c(-c4cnc([C@@H]5CCCN5C(=O)[C@@H](NC(=O)OC)C(C)C)[nH]4)cc2O3)[nH]1` [Compound 45], the EC50 is less than 1 nM.
Under `COC(=O)N[C@H](C(=O)N1CCC[C@H]1c1ncc(-c2ccc3oc4cc(-c5cnc([C@@H]6CCCN6C(=O)[C@@H](NC(=O)OC)C6CCOCC6)[nH]5)ccc4c(=O)c3c2)[nH]1)C(C)C` [Example 17] stands less than 1 nM; under `CC[C@H](C)[C@H](NC(=O)OC)C(=O)N1CCC[C@H]1c1ncc(-c2ccc3c(=O)c4cc(-c5cnc([C@@H]6CSCN6C(=O)[C@@H](NC(=O)OC)[C@@H](C)CC)[nH]5)ccc4oc3c2)[nH]1` [Compound 123], less than 1 nM.
The same measure for `COC(=O)N[C@H](C(=O)N1CCOC[C@H]1c1ncc(-c2ccc3c(c2)Oc2ccc(-c4cnc([C@@H]5COCCN5C(=O)[C@@H](NC(=O)OC)C(C)C)[nH]4)cc2O3)[nH]1)C(C)C` [Compound 64]: less than 1 nM; for `CC[C@H](C)[C@H](NC(=O)OC)C(=O)N1CCC[C@H]1c1ncc(-c2ccc3c(c2)Oc2ccc(-c4cnc([C@@H]5CCCN5C(=O)[C@@H](NC(=O)OC)[C@@H](C)CC)[nH]4)cc2O3)[nH]1` [Compound 46]: less than 1 nM.
The same measure for `COC(=O)N[C@H](C(=O)N1CCC[C@H]1c1ncc(-c2ccc3c(=O)c4cc(-c5cnc([C@@H]6COCCN6C(=O)[C@@H](NC(=O)OC)C(C)C)[nH]5)ccc4oc3c2)[nH]1)C(C)C` [Compound 142]: less than 1 nM.
In the case of `COC(=O)N[C@H](C(=O)N1CCC[C@H]1c1ncc(-c2ccc3c(c2)CCc2ccc(-c4cnc([C@@H]5CCCN5C(=O)[C@@H](NC(=O)OC)C(C)C)[nH]4)cc2O3)[nH]1)C(C)C` [Example 12], the EC50 was less than 1 nM.
Consider `COC(=O)N[C@@H](C(=O)N1CCC[C@H]1c1ncc(-c2ccc3oc4cc(-c5cnc([C@@H]6CCCN6C(=O)[C@H](NC(=O)OC)c6ccccc6)[nH]5)c(F)cc4c(=O)c3c2)[nH]1)c1ccccc1` [Example 24], for which the EC50 is less than 1 nM.
Under `COC(=O)N[C@H](C(=O)N1CCC[C@H]1c1ncc(-c2ccc3c(c2)Oc2ccc(-c4cnc([C@@H]5CCCN5C(=O)[C@@H](NC(=O)OC)C5CCCC5)[nH]4)cc2O3)[nH]1)C1CCCC1` [Compound 33] stands less than 1 nM; under `COC(=O)N[C@H](C(=O)N1CCC[C@H]1c1ncc(-c2ccc3c(c2)Oc2nnc(-c4cnc([C@@H]5CCCN5C(=O)[C@@H](NC(=O)OC)C(C)C)[nH]4)cc2O3)[nH]1)C(C)C` [Compound 151], 1 to 9.9 nM; under `COC(=O)N[C@H](C(=O)N1CSC[C@H]1c1ncc(-c2ccc3c(c2)Oc2ccc(-c4cnc([C@@H]5CSCN5C(=O)[C@@H](NC(=O)OC)C(C)C)[nH]4)cc2O3)[nH]1)C(C)C` [Compound 36], less than 1 nM.
The same measure for `CC[C@H](C)[C@H](NC(=O)OC)C(=O)N1CCC[C@H]1c1ncc(-c2ccc3c(=O)c4cc(-c5cnc([C@@H]6COCCN6C(=O)[C@@H](NC(=O)OC)[C@@H](C)CC)[nH]5)ccc4oc3c2)[nH]1` [Compound 130]: less than 1 nM.
The same measure for `CC[C@H](C)[C@H](NC(=O)OC)C(=O)N1CCC[C@H]1c1ncc(-c2ccc3c(=O)c4cc(-c5cnc([C@@H]6CCCN6C(=O)[C@@H](NC(=O)OC)[C@@H](C)CC)[nH]5)ccc4oc3c2)[nH]1` [Compound 138]: less than 1 nM; for `COC(=O)N[C@H](C(=O)N1CCC[C@H]1c1ncc(-c2ccc3c(c2)Cc2ccc(-c4cnc([C@@H]5CCCN5C(=O)[C@@H](NC(=O)OC)C(C)C)[nH]4)cc2O3)[nH]1)C(C)C` [Example 6]: less than 1 nM.
With `COC(=O)N[C@H](C(=O)N1CCC[C@H]1c1ncc(-c2ccc3c(c2)Oc2ccc(-c4cnc([C@@H]5CSCN5C(=O)[C@@H](NC(=O)OC)C(C)C)[nH]4)cc2C3)[nH]1)C(C)C` [Compound 124], the EC50 is less than 1 nM.
The same measure for `COC(=O)N[C@H](C(=O)N1CCC[C@H]1c1ncc(-c2ccc3c(c2)Oc2ccc(-c4cnc([C@@H]5CCCN5C(=O)[C@@H](NC(=O)OC)C(C)C)[nH]4)cc2C3(C)C)[nH]1)C(C)C` [Example 10]: less than 1 nM.
